# Reference: patent EP0774249A2, “Topical composition containing specific flavanones” (UNILEVER PLC, priority 1995, dated 1997)
# Read-outs that look alike come from different tables or passages of the source.
# Tested on: Human Epidermal Keratinocytes
# Experiment: Transglutaminase (TG-1) assay, ELISA on cultured keratinocytes
# Format: cell-based
# Conditions: for TG-1 production DAY 2 / TG-1 production DAY 3 / TG-1 production DAY 1: absorbance OD 490nm; for TG-1 production DAY 2: control 0.134 (Exp. 1), 0.152 (Exp. 2), 0.174 (Exp. 3); for TG-1 production DAY 3: control 0.143 (Exp. 1), 0.200 (Exp. 2), 0.218 (Exp. 3); for TG-1 production DAY 1: control 0.154 (Exp. 1), 0.179 (Exp. 2), 0.181 (Exp. 3); for Effects on Differentiation (TG-1): 5 and 15 µg/ml, after 72 hour incubation; for activity at 10 µg/mL / activity at 25 µg/mL / activity at 50 µg/mL: Homo sapiens, Keratinocyte
compound,measurement,setting,value
O=C1c2c(O)cc(O)cc2O[C@H](c2ccc(O)c(O)c2)[C@H]1O [Taxifolin],TG-1 production DAY 2,10 µg/mL,0.204 ± 0.04
same,TG-1 production DAY 3,10 µg/mL,0.231 ± 0.03
same,TG-1 production DAY 1,10 µg/mL,0.153 ± 0.02
same,TG-1 production DAY 2,25 µg/mL,0.212 ± 0.03
same,TG-1 production DAY 3,25 µg/mL,0.226 ± 0.02
same,TG-1 production DAY 1,25 µg/mL,0.175 ± 0.04
same,TG-1 production DAY 2,50 µg/mL,0.159 ± 0.01
same,TG-1 production DAY 3,50 µg/mL,0.199 ± 0.04
same,TG-1 production DAY 1,50 µg/mL,0.150 ± 0.02
same,Effects on Differentiation (TG-1),,Increase TG-1
same,Effects on Differentiation (TG-1),listed as taxifolin,stimulated TG-1 production
same,stimulation of differentiation (TG-1 production) against the control,"10, 25, 50 µg/mL, days 1 to 3 (Table 2)",stimulated differentiation to the same extent or higher than the control
same,activity at 10 µg/mL,"24 h, 10 µg/mL, read-out: DAY 1 (% over control) (converted)",85%
same,activity at 25 µg/mL,"24 h, 25 µg/mL, read-out: DAY 1 (% over control) (converted)",97%
same,activity at 50 µg/mL,"24 h, 50 µg/mL, read-out: DAY 1 (% over control) (converted)",84%
same,activity at 10 µg/mL,"48 h, 10 µg/mL, read-out: DAY 2 (% over control) (converted)",117%
same,activity at 25 µg/mL,"48 h, 25 µg/mL, read-out: DAY 2 (% over control) (converted)",122%
same,activity at 50 µg/mL,"48 h, 50 µg/mL, read-out: DAY 2 (% over control) (converted)",92%
same,activity at 10 µg/mL,"72 h, 10 µg/mL, read-out: DAY 3 (% over control) (converted)",106%
same,activity at 25 µg/mL,"72 h, 25 µg/mL, read-out: DAY 3 (% over control) (converted)",104%
same,activity at 50 µg/mL,"72 h, 50 µg/mL, read-out: DAY 3 (% over control) (converted)",92%
